Here are results for 21 compounds from US7022699B2, “Cyclohexenyl phenyl diazepines vasopressin and oxytocin receptor modulators” (Wyeth, priority 2001, dated 2006).

SMILES strings stand for the structures.

In the first experiment the target is T1, human oxytocin receptor (Homo sapiens, UniProt P30559).
T1 construct: host or cells: CHO cells, stably transfected (pcDNA3.1 vector); membranes
T1 sequence (P30559 1-389): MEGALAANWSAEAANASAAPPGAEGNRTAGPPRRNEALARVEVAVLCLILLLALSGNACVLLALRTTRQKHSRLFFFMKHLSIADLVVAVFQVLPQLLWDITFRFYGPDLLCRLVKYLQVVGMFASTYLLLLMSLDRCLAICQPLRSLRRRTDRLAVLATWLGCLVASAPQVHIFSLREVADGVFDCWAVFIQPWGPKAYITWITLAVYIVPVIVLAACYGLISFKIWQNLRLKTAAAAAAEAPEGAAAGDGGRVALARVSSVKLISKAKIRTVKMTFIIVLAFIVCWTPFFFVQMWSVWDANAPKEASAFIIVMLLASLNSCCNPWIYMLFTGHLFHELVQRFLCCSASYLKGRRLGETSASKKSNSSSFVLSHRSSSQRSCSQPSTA
In words: Oxytocin binding in CHO cell membranes expressing human oxytocin receptors ([3H]oxytocin). To be noted: 100 nM, values without parentheses, read-out: OT % inhibition @ 100 nM. The text has this:
Oxytocin Binding in Chinese Hamster Ovary Cell Membranes Expressing Human Oxytocin Receptors
Chinese Hamster Ovary (CHO) cells stably transfected with the human oxytocin (cf. Tanizawa et al., U.S. Pat. No. 5,466,584 (1995) to Rohto Pharmaceutical Co. Ltd., Osaka, Japan) were obtained from M. Thibonnier, Case Western Reserve University School of Medicine, Cleveland, Ohio. A. Passaging and Amplification of Cells: CHO cells transfected with the human oxytocin receptors obtained from M. Thibonnier (pcDNA3.1 vector) are allowed to grow to confluency (approx. >90%) in T-150 flasks under sterile conditions, in a cell culture medium of F-12 Nutrient Mixture (HAM) with L-glutamine (Gibco Cat. #11765-054) containing 15 mM HEPES (Gibco Cat. #15630-080), 1% antibiotic/antimycotic (add 5 mL 100×, Gibco Cat. #15240-062 per 500 mL F-12), 400 μg/mL of Geneticin (add 4 mL of 50 mg/mL per 500 mL F-12) and 10% Fetal Bovine Serum (Qualified, heat inactivated, Gibco Cat. #16140-063). The medium is removed by aspiration and the cells are washed with 10 mL of Hank's Balanced Salt solution (Gibco Cat. #14175-095). The salt solution is removed by aspiration and the cells trypsinized with 5 mL of trypsin-EDTA (0.05% trypsin, 0.53 mM EDTA-4Na, Gibco Cat. #25300-070) for 1 min. The trypsin is removed by aspiration and the cells dislodged by tapping. Cell Culture medium (e.g. 30 mL for 1:30 split) is immediately added and mixed well to inactivate trypsin. 1 mL of detached cells is added to new culture flasks containing fresh Cell Culture medium (e.g. into 25 mL per T-150 flask), and mixed gently. The cells are incubated at 37° C. in 5% CO2. The medium is changed at 3 to 4 days interval (or as appropriate). The cells grow to confluency (approx. >75%–95%) within 7–8 days. All steps are done under sterile conditions. B. Membrane Preparation: The cells are washed twice gently with Hank's Balanced Salt solution (e.g., use 10 mL per T-150 flask). The excess is removed and the cells bathed for 15–30 min. in an enzyme-free Cell Dissociation Buffer (e.g., use 8 mL Hank's Based, Gibco Cat. #13150-016 per T-150 flask) until cells are loosened. The contents are transferred to centrifuge tubes (50 mL size) kept in ice bath. All subsequent steps are done at 4° C. The tubes are centrifuged at 300×g for 15 min (1380 rpm on SORVAL, Model RT6000D, using rotor for 50 mL tubes). The supernatant is discarded and the cells suspended in homogenizing buffer (10 mM Tris-HCl containing 0.25 M sucrose and 1 mM EDTA, pH 7.4) ensuring that the volume of the buffer is about ten times the volume of the cell pellet. The cells are pooled into a centrifuge tube (50 mL) and homogenized with Polytron at setting 6 for 10 sec. The homogenate is transferred into a Potter-Elvjehm homogenizer and homogenized with 3 strokes. The homogenate is centrifuged at 1500×g for 10 min at 4° C. (3100 rpm using SORVAL, model RT6000D, using rotor for 50 mL tubes). The pellet. is discarded. The supernatant is centrifuged at 100,000×g for 60 min. at 4° C. (Beckman L8-80M ultracentrifuge; spin at 37,500 rpm with rotor type 70 Ti for 50 mL tubes; 38,000 rpm with type 80Ti for 15 mL tubes; or 35,800 rpm with rotor type 45Ti). The supernantant is discarded and the pellet suspended in 3 to 4 mL of Tris buffer (50 mM TRIS-HCl, pH 7.4). The protein content is estimated by the Bradford or Lowry method. The volume of the membrane suspension is adjusted with the membrane buffer (50 mM Tris-HCl containing 0.1% BSA and 0.1 mM PMSF) to give 3.0 mg/mL (or as appropriate) of protein. The membranes are aliquoted and stored at −70° C. C. Radioligand Binding Assay: In wells of a 96-well format microliter plate, is added 90, 110 or 130 μL (to make up a final volume of 200 μL) of assay buffer containing 50 mM of Tris-HCl (pH 7.4), […], 1 mg % aprotinin, 1 mg % leupeptin, 2 mg % 1,10-phenanthroline, 10 mg % trypsin inhibitor, and 0.1 mM PMSF. The inhibitors are added on the day of the experiment. […]
As usually defined, the inhibition is the drop in the measured response relative to a control, in per cent. On to `CC1=C(c2ccc(C(=O)N3Cc4cccn4Cc4ccccc43)cc2C)CCCC1O` (racemic) [Example 5, (10,11-Dihydro-5H-pyrrolo[2,1-c][1,4]benzodiazepin-10-yl)-[4-(3-hydroxy-2-methyl-cyclohex-1-en-1-yl)-3-methyl-phenyl]-methanone], for which the inhibition at 0.1 µM came to 13%.
As for `CC1=C(c2ccc(C(=O)N3Cc4cccn4Cc4ccccc43)cc2C)CCC[C@H]1O` (single isomer, unassigned) [Example 41], the inhibition at 0.1 µM was 90%.
Same read-out and setting: the value for `CC1=C(c2ccc(C(=O)N3Cc4cccn4Cc4ccccc43)cc2C)CCC[C@@H]1O` (single isomer, unassigned) [Example 43] was 96%.
With `Cc1cc(C(=O)N2Cc3cccn3Cc3ccccc32)ccc1C1=CCCCC1` [Example 2, (10,11-Dihydro-5H-pyrrolo[2,1-c][1,4]benzodiazepin-10-yl)-(4-cyclohex-1-en-1-yl-3-methyl-phenyl)-methanone], the inhibition at 0.1 µM was determined as 96%.
For the compound `CC1=C(c2ccc(C(=O)N3Cc4cccn4Cc4ccccc43)cc2C)CCCC1=O` [Example 4, 3-[2-Methyl-4-(5H-pyrrolo[2,1-c][1,4]benzodiazepin-10(11H)-yl-carbonyl)phenyl]-2-methyl-cyclohex-2-en-1-one], the inhibition at 0.1 µM stood at 46%.
Same read-out and setting: the value for `CC1=C(c2ccc(C(=O)N3Cc4cccn4Cc4ccccc43)cc2C)CCC[C@H]1O` [Example 6, (10,11-Dihydro-5H-pyrrolo[2,1-c][1,4]benzodiazepin-10-yl)-[4-((3R)-3-hydroxy-2-methyl-cyclohex-1-en-1-yl)-3-methyl-phenyl]-methanone] was 95%; that for `COc1cc(C2=CCCc3ccccc32)c(Cl)cc1C(=O)N1Cc2cccn2Cc2ccccc21` [Example 8, 10-[5-Chloro-4-(3,4-dihydro-naphthalen-1-yl)-2-methoxybenzoyl]-10,11-dihydro-5H-pyrrolo[2,1-c][1,4]benzodiazepine] was 93%; that for `COc1cc(C2=C(C)C(=O)CCC2)c(Cl)cc1C(=O)N1Cc2cccn2Cc2ccccc21` [Example 9, 3-[2-Chloro-5-methoxy-4-(5H-pyrrolo[2,1-c][1,4]benzodiazepin-10(11H)-yl-carbonyl)phenyl]-2-methyl-cyclohex-2-en-1-one] was 90%.
Same read-out and setting: the same measure for `O=C(c1ccc(C2=CCCCC2)cc1Cl)N1Cc2cccn2Cc2ccccc21` [Example 10, (10,11-dihydro-5H-pyrrolo[2,1-c][1,4]benzodiazepin-10-yl)-[2-chloro-4-(cyclohex-1-en1-yl)-phenyl]-methanone]: 95%; for `O=C(c1ccc(C2=CCCc3ccccc32)cc1Cl)N1Cc2cccn2Cc2ccccc21` [Example 11, (10,11-Dihydro-5H-pyrrolo[2,1-c][1,4]benzodiazepin-10-yl)-[2-chloro-4-(3,4-dihydro-naphthalen-1-yl)-phenyl]-methanone]: 65%; for `CC1(C)CCCC=C1c1ccc(C(=O)N2Cc3cccn3Cc3ccccc32)c(Cl)c1` [Example 12, (10,11-Dihydro-5H-pyrrolo[2,1-c][1,4]benzodiazepin-10-yl)-[2-chloro-4-(6,6-dimethyl-cyclohex-1-en-1-yl)-phenyl]-methanone]: 74%.
Still for that read-out and setting: the same measure for `CC1=C(c2ccc(C(=O)N3Cc4cccn4Cc4ccccc43)c(Cl)c2)CCCC1=O` [Example 13, (10,11-Dihydro-5H-pyrrolo[2,1-c][1,4]benzodiazepin-10-yl)-[2-chloro-4-(2-methyl-3-oxo-cyclohex-1-en-1-yl)-phenyl]-methanone]: 98%.
Regarding `CC1=C(c2ccc(C(=O)N3Cc4cccn4Cc4ccccc43)c(Cl)c2)CCCC1O` (stereo not drawn) [Example 14, (10,11-Dihydro-5H-pyrrolo[2,1-c][1,4]benzodiazepin-10-yl)-[2-chloro-4-(3-hydroxy-2-methyl-cyclohex-1-en-1-yl)-phenyl]-methanone], the inhibition at 0.1 µM worked out at 27%.
The same measure, in the same setting: the value for `CC1(C)CCCC=C1c1ccc(C(=O)N2Cc3cccn3Cc3ccccc32)cc1` [Example 17, (10,11-Dihydro-5H-pyrrolo[2,1-c][1,4]benzodiazepin-10-yl)-[4-(6,6-dimethyl-cyclohex-1-en-1-yl)-phenyl]-methanone] was 76%; that for `O=C(c1ccc(C2=CCCc3ccccc32)cc1)N1Cc2cccn2Cc2ccccc21` [Example 18, (10,11-Dihydro-5H-pyrrolo[2,1-c][1,4]benzodiazepin-10-yl)-[4-(3,4-dihydro-naphthalen-1-yl)-phenyl]-methanone] was 80%; that for `CC1=C(c2ccc(C(=O)N3Cc4cccn4Cc4ccccc43)cc2)C(C)CCC1` (stereo not drawn) [Example 19, (10,11-Dihydro-5H-pyrrolo[2,1-c][1,4]benzodiazepin-10-yl)-[4-(2,6-dimethyl-cyclohex-1-en-1-yl)-phenyl]-methanone] was 47%.

The same experiment, now with this note: values in parentheses, read-out: OT (IC50).
Usually IC50 stands for the concentration that gives 50% inhibition. Take `COc1cc(C2=CCCCC2)c(Cl)cc1C(=O)N1Cc2cccn2Cc2ccccc21` [Example 1, 10-(5-Chloro-4-cyclohex-1-en-1-yl-2-methoxybenzoyl)-10,11-dihydro-5H-pyrrolo[2,1-c][1,4]benzodiazepine]: the IC50 stood at 0.00774 µM.
With `Cc1cc(C(=O)N2Cc3cccn3Cc3ccccc32)ccc1C1=CCCc2ccccc21` [Example 3, (10,11-Dihydro-5H-pyrrolo[2,1-c][1,4]benzodiazepin-10-yl)-[4-(3,4-dihydro-naphthalen-1-yl)-3-methyl-phenyl]-methanone], the half-inhibitory concentration (IC50) was determined as 0.024 µM.
Still for that read-out and setting: the value for `CC1=C(c2ccc(C(=O)N3Cc4cccn4Cc4ccccc43)cc2)CCCC1` [Example 7, (10,11-Dihydro-5H-pyrrolo[2,1-c][1,4]benzodiazepin-10-yl)-[4-(2-methyl-cyclohex-1-en-1-yl)-phenyl]-methanone] was 0.00906 µM; that for `O=C(c1ccc(C2=CCCCC2)cc1)N1Cc2cccn2Cc2ccccc21` [Example 15, (10,11-Dihydro-5H-pyrrolo[2,1-c][1,4]benzodiazepin-10-yl)-(4-cyclohex-1-en-1-yl-phenyl)-methanone] was 0.0489 µM; that for `CC1CCCC=C1c1ccc(C(=O)N2Cc3cccn3Cc3ccccc32)cc1` (stereo not drawn) [Example 16, (10,11-Dihydro-5H-pyrrolo[2,1-c][1,4]benzodiazepin-10-yl)-[4-(6-methyl-cyclohex-1-en-1-yl)-phenyl]-methanone] was 0.0218 µM.
